Measurements reported in ChEMBL document CHEMBL1201862, “PubChem BioAssay data set” (2004).
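1) Cells in 96-well plates. 2) Compound, 48 h, 5 concentrations. 3) Linear interpolation between surrounding doses. 4) Unreached endpoint = highest concentration. GI50 = concentration required for 50% inhibition of growth.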 Calls of active or inactive are those of the source. Cut-off read from the data, not from the text of the source: active = GI50 up to about 1.1 µM and inactive = higher.

Tests used:
Assay in all cases: DTP human tumour cell line panel, 48 h
[1] = tested on: SW-620
[2] = tested on: HCT-15
[3] = tested on: OVCAR-3
[4] = tested on: MDA-MB-435
[5] = tested on: T47D
[6] = tested on: A549
[7] = tested on: HCT-116
[8] = tested on: HOP-62
[9] = tested on: CAKI-1
[10] = tested on: UACC-257
[11] = tested on: SF-268
[12] = tested on: K562
[13] = tested on: SN12C
[14] = tested on: SF-539
[15] = tested on: MDA-N
[16] = tested on: NCI-H460
[17] = tested on: HOP-92
[18] = tested on: OVCAR-4
[19] = tested on: TK-10
[20] = tested on: RPMI-8226
[21] = tested on: NCI-H226
[22] = tested on: MDA-MB-231
[23] = tested on: DU-145
[24] = tested on: NCI-H23
[25] = tested on: SF-295
[26] = tested on: SK-MEL-5
[27] = tested on: 786-0
[28] = tested on: BT-549
[29] = tested on: U-251
[30] = tested on: ACHN
[31] = tested on: OVCAR-8
[32] = tested on: SNB-75
[33] = tested on: COLO 205
[34] = tested on: SNB-19
[35] = tested on: NCI/ADR-RES
[36] = tested on: MCF7
[37] = tested on: IGROV-1
[38] = tested on: Malme-3M
[39] = tested on: NCI-H522
[40] = tested on: A498
[41] = tested on: SR
[42] = tested on: RXF 393
[43] = tested on: SK-MEL-28
[44] = tested on: KM12
[45] = tested on: CCRF-CEM
[46] = tested on: MOLT-4
[47] = tested on: OVCAR-5
[48] = tested on: HT-29
[49] = tested on: UACC-62
[50] = tested on: M14
[51] = tested on: Hs-578T
[52] = tested on: HCC 2998
[53] = tested on: EKVX
[54] = tested on: LOX IMVI
[55] = tested on: HL-60
[56] = tested on: PC-3
[57] = tested on: UO-31
[58] = tested on: SK-OV-3

CN(C)Cc1cc(/N=N/c2ccccc2Cl)cc(CN(C)C)c1O
GI50 [1]: 90.2 µM (inactive) | GI50 [2]: > 100 µM | GI50 [3]: 21.4 µM (inactive) | GI50 [4]: 34.4 µM (inactive) | GI50 [5]: > 100 µM (inactive) | GI50 [6]: 77.4 µM (inactive) | GI50 [7]: 53 µM (inactive) | GI50 [8]: 6.67 µM (inactive) | GI50 [9]: > 100 µM (inactive) | GI50 [10]: 20.1 µM (inactive) | GI50 [11]: 73.8 µM (inactive) | GI50 [12]: 37.5 µM (inactive) | GI50 [13]: > 100 µM (inactive) | GI50 [14]: > 100 µM (inactive) | GI50 [15]: 29.2 µM (inactive) | GI50 [16]: 47.2 µM (inactive) | GI50 [17]: 21.5 µM (inactive) | GI50 [18]: 60.1 µM (inactive) | GI50 [19]: > 100 µM (inactive) | GI50 [20]: > 100 µM (inactive) | GI50 [21]: > 100 µM (inactive) | GI50 [22]: 98.4 µM (inactive) | GI50 [23]: > 100 µM (inactive) | GI50 [24]: > 100 µM (inactive) | GI50 [25]: 44.7 µM (inactive) | GI50 [26]: 18.2 µM (inactive) | GI50 [27]: 76.9 µM (inactive) | GI50 [28]: 53.1 µM (inactive) | GI50 [29]: 84.3 µM (inactive) | GI50 [30]: > 100 µM (inactive) | GI50 [31]: 45.5 µM (inactive) | GI50 [32]: 56.4 µM (inactive) | GI50 [33]: 20.5 µM (inactive) | GI50 [34]: > 100 µM (inactive) | GI50 [35]: 63.7 µM (inactive) | GI50 [36]: > 100 µM (inactive) | GI50 [37]: 58.1 µM (inactive) | GI50 [38]: > 10 µM (inactive) | GI50 [39]: 12.3 µM (inactive) | GI50 [40]: 33.7 µM (inactive) | GI50 [41]: 45.2 µM (inactive) | GI50 [42]: 31.6 µM (inactive) | GI50 [43]: 18.5 µM (inactive) | GI50 [44]: 77.6 µM (inactive) | GI50 [45]: 25.6 µM (inactive) | GI50 [46]: 20.5 µM (inactive) | GI50 [47]: 46.9 µM (inactive) | GI50 [48]: 42.9 µM (inactive) | GI50 [49]: 26.2 µM (inactive) | GI50 [50]: 29.4 µM (inactive) | GI50 [51]: 28.1 µM (inactive) | GI50 [52]: 48.2 µM (inactive) | GI50 [53]: > 100 µM (inactive) | GI50 [54]: 16.9 µM (inactive) | GI50 [55]: 20.8 µM (inactive) | GI50 [56]: 33.5 µM (inactive) | GI50 [57]: 23.3 µM (inactive)

CC(=O)CC12NC(=O)N(C)N=C1N(C)C(=O)N(C)C2=O (configuration not stated)
GI50 [1]: 33.9 µM (inactive) | GI50 [2]: 57.7 µM | GI50 [58]: > 100 µM (inactive) | GI50 [3]: 34.8 µM (inactive) | GI50 [4]: 17 µM (inactive) | GI50 [5]: 30.8 µM (inactive) | GI50 [6]: > 100 µM (inactive) | GI50 [7]: 35.7 µM (inactive) | GI50 [8]: 51.6 µM (inactive) | GI50 [9]: > 100 µM (inactive) | GI50 [10]: 18.6 µM (inactive) | GI50 [11]: 78.2 µM (inactive) | GI50 [12]: 40.1 µM (inactive) | GI50 [13]: 33.1 µM (inactive) | GI50 [14]: 25.7 µM (inactive) | GI50 [15]: 22.3 µM (inactive) | GI50 [16]: 65.9 µM (inactive) | GI50 [17]: 95.1 µM (inactive) | GI50 [18]: 71.8 µM (inactive) | GI50 [19]: > 100 µM (inactive) | GI50 [20]: 58.1 µM (inactive) | GI50 [21]: > 100 µM (inactive) | GI50 [22]: 43 µM (inactive) | GI50 [23]: > 100 µM (inactive) | GI50 [24]: 38.7 µM (inactive) | GI50 [25]: 27.4 µM (inactive) | GI50 [27]: 91 µM (inactive) | GI50 [28]: > 100 µM (inactive) | GI50 [29]: 34.4 µM (inactive) | GI50 [30]: 74.6 µM (inactive) | GI50 [31]: 32.1 µM (inactive) | GI50 [32]: 68.1 µM (inactive) | GI50 [33]: 52.4 µM (inactive) | GI50 [34]: > 10 µM (inactive) | GI50 [35]: 29.4 µM (inactive) | GI50 [36]: 41.8 µM (inactive) | GI50 [37]: > 100 µM (inactive) | GI50 [38]: 13.4 µM (inactive) | GI50 [39]: 37.7 µM (inactive) | GI50 [40]: 31.9 µM (inactive) | GI50 [41]: 63.7 µM (inactive) | GI50 [42]: 68.1 µM (inactive) | GI50 [43]: 57.3 µM (inactive) | GI50 [44]: 52.8 µM (inactive) | GI50 [45]: 39.2 µM (inactive) | GI50 [46]: 44.8 µM (inactive) | GI50 [47]: > 100 µM (inactive) | GI50 [48]: 35.9 µM (inactive) | GI50 [49]: 23.9 µM (inactive) | GI50 [50]: 73.5 µM (inactive) | GI50 [51]: > 100 µM (inactive) | GI50 [52]: 82.8 µM (inactive) | GI50 [53]: > 100 µM (inactive) | GI50 [54]: 19.8 µM (inactive) | GI50 [55]: 25.9 µM (inactive) | GI50 [56]: 30.8 µM (inactive) | GI50 [57]: > 100 µM (inactive)

CC(=O)O[C@H]1C(=O)[C@@]2(C)[C@H]([C@H](OC(=O)c3ccccc3)[C@]3(O)C[C@H](OC(=O)[C@H](O)[C@@H](NC(=O)c4cccc(N=[N+]=[N-])c4)c4ccccc4)C(C)=C1C3(C)C)[C@]1(OC(C)=O)CO[C@@H]1C[C@@H]2O
GI50 [1]: 0.00621 µM (active) | GI50 [2]: 0.662 µM | GI50 [58]: 0.0122 µM (active) | GI50 [3]: < 0.0025 µM (active) | GI50 [4]: < 0.0025 µM (active) | GI50 [5]: 0.0338 µM (active) | GI50 [6]: 0.0108 µM (active) | GI50 [7]: < 0.0025 µM (active) | GI50 [8]: 0.00813 µM (active) | GI50 [9]: 1.07 µM (active) | GI50 [10]: 0.00621 µM (active) | GI50 [11]: 0.0289 µM (active) | GI50 [12]: < 0.0025 µM (active) | GI50 [13]: 0.0164 µM (active) | GI50 [14]: < 0.0025 µM (active) | GI50 [15]: < 0.0025 µM (active) | GI50 [16]: 0.00859 µM (active) | GI50 [17]: 0.0109 µM (active) | GI50 [18]: 6.05 µM (inactive) | GI50 [19]: 0.117 µM (active) | GI50 [20]: < 0.0025 µM (active) | GI50 [21]: 0.00855 µM (active) | GI50 [22]: 0.0149 µM (active) | GI50 [23]: 0.0208 µM (active) | GI50 [24]: 0.00641 µM (active) | GI50 [25]: 0.0247 µM (active) | GI50 [26]: 0.00507 µM (active) | GI50 [27]: 0.0179 µM (active) | GI50 [28]: 0.0364 µM (active) | GI50 [29]: 0.00629 µM (active) | GI50 [30]: 0.327 µM (active) | GI50 [31]: 0.00798 µM (active) | GI50 [32]: 0.0173 µM (active) | GI50 [33]: 0.00301 µM (active) | GI50 [34]: 0.0129 µM (active) | GI50 [35]: 8.32 µM (inactive) | GI50 [36]: < 0.0025 µM (active) | GI50 [37]: 0.00679 µM (active) | GI50 [38]: 0.00711 µM (active) | GI50 [39]: 0.00307 µM (active) | GI50 [40]: 0.0408 µM (active) | GI50 [41]: < 0.0025 µM (active) | GI50 [42]: 0.045 µM (active) | GI50 [43]: 0.425 µM (active) | GI50 [44]: 0.0038 µM (active) | GI50 [45]: 0.00331 µM (active) | GI50 [46]: 0.00453 µM (active) | GI50 [47]: 0.00893 µM (active) | GI50 [48]: < 0.0025 µM (active) | GI50 [49]: 0.00731 µM (active) | GI50 [50]: 0.00908 µM (active) | GI50 [51]: < 0.0025 µM (active) | GI50 [52]: 0.0634 µM (active) | GI50 [53]: > 7.59 µM (inactive) | GI50 [54]: 0.00789 µM (active) | GI50 [55]: < 0.0025 µM (active) | GI50 [56]: 0.0047 µM (active) | GI50 [57]: 1.33 µM (inactive)
